Source: patent US6331520A, “Pharmaceutical compositions of peptides having low solubility in physiological medium” (Applied Research Systems ARS Holding NV, priority 1997, dated 2001)
≈ marks a conversion by molar mass, not a printed value. Non-standard residues stand in square brackets, D forms with d. Residues, ends and D or L forms follow the SMILES beside them. *: point of attachment. dPhe(4-Cl) = N[C@H](Cc1ccc(Cl)cc1)C(=O)O; d2Nal = N[C@H](Cc1ccc2ccccc2c1)C(=O)O; Lys(iPr) = CC(C)NCCCC[C@H](N)C(=O)O; d3Pal = N[C@H](Cc1cccnc1)C(=O)O; Nicotinoyl = O=C(c1cccnc1)*

Experiments:
Type in all cases: physicochemical
[1] = Solubilisation studies for antide: effect of pH (WFI, saline, acids)
Protocol: Solubilisation studies were carried out to study the effect of:
pH (solutions were acidified with either acetic acid or hydrochloric acid)
(§1) Saline used in these studies corresponds to 0.9% sodium chloride solution.
(§2) Following the visual analysis, a number of solutions were selected for further quantitative determination of the solubility by filtration (0.45 μm filters) and appropriate dilution using the RP-HPLC method described above.
Tables 3 to 7 summarise the observations collected in order to obtain information on the solubility behaviour of antide in water for injectables (WFI), WFI acidified by HCl or acetic acid, saline and saline acidified by acetic acid. In agreement with previous studies, the solubility of antide increased as the pH decreased.

[2] = Solubilisation studies for antide: effect of hydrotropic agents in saline; settings: for Solubility: antide 5 mg/ml added
Description: hydrotropic agents (nicotinamide, sodium saccharin, sodium salicylate, sodium benzoate, histidine hydrochloride, thiamine hydrochloride, phenylalanine).
as §1, §2
The effect of different hydrotropic agents (1.5% & 15% w/w) in saline solutions was also evaluated and is described in Tables 8 and 9.

[3] = Stability of nicotinamide/antide formulations; set-up: Stability (antide found): unit not given here
Protocol: RP-HPLC gradient elution, C-18 (e.g. Vydac 218 TP54, 250×4.6 mm) column. UV detection at 215 nm, injection volume 15 μl, mobile phase A: pH 4.5 phosphate buffer (0.1 M), mobile phase B: acetonitrile, flow rate=1.0 ml/min, runtime=23 min. External standard solution concentrations of 100 μg/ml were injected during analysis. The gradient was: 77% A, 23% B to 52% A, 48% B […].
Four formulations of antide and nicotinamide at different concentration ratios and adjusted to pH 5 were prepared and tested over 3 months at +40° C., +25° C. and +4° C.

[4] = Solubilisation studies for hGRF; settings: for solubility thermodynamic at 1 week: 0.9% NaCl
Protocol: Solubilisation studies were carried out to study the effect of saline and pH 7 phosphate buffer on the solubility of hGRF.
Qunatitation of the amount of hGRF dissolved was performed by filtration of the equilibrated solution through a 0.45 μm filter prior to dilution and analysis by HPLC.

**Q.** Which “Solubility” value ([1]; 10 mg/ml in saline, pH 3.0 or 4.6, 4% acetic acid) does the source give for `CC(=O)N[C@H](Cc1ccc2ccccc2c1)C(=O)N[C@H](Cc1ccc(Cl)cc1)C(=O)N[C@H](Cc1cccnc1)C(=O)N[C@@H](CO)C(=O)N[C@@H](CCCCNC(=O)c1cccnc1)C(=O)N[C@H](CCCCNC(=O)c1cccnc1)C(=O)N[C@@H](CC(C)C)C(=O)N[C@@H](CCCCNC(C)C)C(=O)N1CCC[C@H]1C(=O)N[C@H](C)C(N)=O` [antide] (Ac-[d2Nal][dPhe(4-Cl)][d3Pal]SK(Nicotinoyl)[dK](Nicotinoyl)L[Lys(iPr)]P[dA]-NH2) here?
**A.** Its value is “not soluble”.

**Q.** What about the Solubility ([1]; WFI, 10 mg/ml nominal amount added, pH 4.40) of the same molecule?
**A.** The Solubility was 8130 µg/mL (≈ 5110 µM).

**Q.** And the Solubility ([1]; phosphate buffered saline, aqueous buffer, read-out: solubility)?
**A.** Its Solubility is 16 µg/mL (≈ 10.1 µM).

**Q.** What about the Solubility ([1]; saline solution, natural pH 5.04) of the same molecule?
**A.** The Solubility was 25 µg/mL (≈ 15.7 µM).

**Q.** And the solubility thermodynamic ([1]; water, without further acidification, read-out: solubility limit)?
**A.** The solubility thermodynamic was 8100 µg/mL (≈ 5090 µM).

**Q.** What about the “solubilisation” value ([2]; 1.5% w/w hydrotropic agents in saline, antide 10 mg/ml) of the same molecule?
**A.** The value was “not effective”.

**Q.** And the antide solubilised ([2]; 5% nicotinamide in saline)?
**A.** Its antide solubilised is “about 0.5 mg/ml”.

**Q.** And the antide solubilised ([2]; 20% nicotinamide in saline)?
**A.** Its antide solubilised is 8.5 mg/mL.

**Q.** What about the Solubility ([2]; saline + 15% nicotinamide, pH 5.79) of the same molecule?
**A.** Its Solubility is 3320 µg/mL.

**Q.** What about the Solubility ([2]; saline + 15% sodium benzoate, pH 6.69) of the same molecule?
**A.** Its Solubility is 72 µg/mL.

**Q.** And the Solubility ([2]; saline + 15% sodium salicylate, pH 5.81)?
**A.** Its Solubility is 210 µg/mL.

**Q.** What about the Solubility ([2]; saline + 15% thiamine hydrochloride, pH 3.30) of the same molecule?
**A.** Its Solubility is 3010 µg/mL.

**Q.** What about the Solubility ([2]; saline + histidine hydrochloride (5%), pH 4.17) of the same molecule?
**A.** The Solubility was 76 µg/mL.

**Q.** What about the Solubility ([2]; saline + phenylalanine (1.7%), pH 4.59) of the same molecule?
**A.** The Solubility was 66 µg/mL.

**Q.** And the “Stability (antide found)” value ([3]; antide 1 mg/ml, nicotinamide 5%, +4° C., 4W)?
**A.** The value was 0.9.

**Q.** And the “Stability (antide found)” value ([3]; antide 1 mg/ml, nicotinamide 5%, +4° C., 12W)?
**A.** The value was 1.0.

**Q.** And the “Stability (antide found)” value ([3]; antide 1 mg/ml, nicotinamide 5%, +25° C., 1W)?
**A.** Its value is 0.9.

**Q.** And the “Stability (antide found)” value ([3]; antide 1 mg/ml, nicotinamide 5%, +25° C., 4W)?
**A.** Its value is 0.9.

**Q.** What about the “Stability (antide found)” value ([3]; antide 1 mg/ml, nicotinamide 5%, +25° C., 12W) of the same molecule?
**A.** Its value is 1.0.

**Q.** What about the “Stability (antide found)” value ([3]; antide 1 mg/ml, nicotinamide 5%, +40° C., 1W) of the same molecule?
**A.** Its value is 1.0.

**Q.** What about the “Stability (antide found)” value ([3]; antide 1 mg/ml, nicotinamide 5%, +40° C., 4W) of the same molecule?
**A.** The value was 0.9.

**Q.** And the “Stability (antide found)” value ([3]; antide 1 mg/ml, nicotinamide 5%, +40° C., 12W)?
**A.** The value was 1.0.

**Q.** What about the “Stability (antide found)” value ([3]; antide 1 mg/ml, nicotinamide 5%, T = 0) of the same molecule?
**A.** The value was 1.0.

**Q.** What about the “Stability (antide found)” value ([3]; antide 1 mg/ml, nicotinamide 25%, +4° C., 4W) of the same molecule?
**A.** The value was 1.0.

**Q.** What about the “Stability (antide found)” value ([3]; antide 1 mg/ml, nicotinamide 25%, +4° C., 12W) of the same molecule?
**A.** The value was 1.1.

**Q.** And the “Stability (antide found)” value ([3]; antide 1 mg/ml, nicotinamide 25%, +25° C., 1W)?
**A.** Its value is 1.0.

**Q.** And the “Stability (antide found)” value ([3]; antide 1 mg/ml, nicotinamide 25%, +25° C., 4W)?
**A.** The value was 1.0.

**Q.** What about the “Stability (antide found)” value ([3]; antide 1 mg/ml, nicotinamide 25%, +25° C., 12W) of the same molecule?
**A.** Its value is 1.1.

**Q.** And the “Stability (antide found)” value ([3]; antide 1 mg/ml, nicotinamide 25%, +40° C., 1W)?
**A.** Its value is 1.0.

**Q.** What about the “Stability (antide found)” value ([3]; antide 1 mg/ml, nicotinamide 25%, +40° C., 4W) of the same molecule?
**A.** The value was 1.0.

**Q.** What about the “Stability (antide found)” value ([3]; antide 1 mg/ml, nicotinamide 25%, +40° C., 12W) of the same molecule?
**A.** The value was 1.1.

**Q.** And the “Stability (antide found)” value ([3]; antide 1 mg/ml, nicotinamide 25%, T = 0)?
**A.** Its value is 1.0.

**Q.** What about the “Stability (antide found)” value ([3]; antide 10 mg/ml, nicotinamide 5%, +4° C., 1W) of the same molecule?
**A.** The value was 10.3.

**Q.** And the “Stability (antide found)” value ([3]; antide 10 mg/ml, nicotinamide 5%, +4° C., 4W)?
**A.** The value was 10.0.

**Q.** What about the “Stability (antide found)” value ([3]; antide 10 mg/ml, nicotinamide 5%, +4° C., 12W) of the same molecule?
**A.** The value was 10.5.

**Q.** And the “Stability (antide found)” value ([3]; antide 10 mg/ml, nicotinamide 5%, +25° C., 1W)?
**A.** Its value is “gel”.

**Q.** And the “Stability (antide found)” value ([3]; antide 10 mg/ml, nicotinamide 5%, +25° C., 4W)?
**A.** Its value is “gel”.

**Q.** What about the “Stability (antide found)” value ([3]; antide 10 mg/ml, nicotinamide 5%, +25° C., 12W) of the same molecule?
**A.** The value was “gel”.

**Q.** What about the “Stability (antide found)” value ([3]; antide 10 mg/ml, nicotinamide 5%, +40° C., 1W) of the same molecule?
**A.** Its value is “gel”.

**Q.** What about the “Stability (antide found)” value ([3]; antide 10 mg/ml, nicotinamide 5%, +40° C., 4W) of the same molecule?
**A.** The value was “gel”.

**Q.** What about the “Stability (antide found)” value ([3]; antide 10 mg/ml, nicotinamide 5%, +40° C., 12W) of the same molecule?
**A.** Its value is “gel”.

**Q.** And the “Stability (antide found)” value ([3]; antide 10 mg/ml, nicotinamide 5%, T = 0)?
**A.** The value was 9.7.

**Q.** What about the “Stability (antide found)” value ([3]; antide 10 mg/ml, nicotinamide 25%, +4° C., 4W) of the same molecule?
**A.** The value was 10.1.

**Q.** And the “Stability (antide found)” value ([3]; antide 10 mg/ml, nicotinamide 25%, +25° C., 1W)?
**A.** The value was 9.8.

**Q.** What about the “Stability (antide found)” value ([3]; antide 10 mg/ml, nicotinamide 25%, +25° C., 4W) of the same molecule?
**A.** The value was 9.5.

**Q.** And the “Stability (antide found)” value ([3]; antide 10 mg/ml, nicotinamide 25%, +25° C., 12W)?
**A.** Its value is 11.1.

**Q.** What about the “Stability (antide found)” value ([3]; antide 10 mg/ml, nicotinamide 25%, +40° C., 1W) of the same molecule?
**A.** The value was 10.7.

**Q.** What about the “Stability (antide found)” value ([3]; antide 10 mg/ml, nicotinamide 25%, +40° C., 4W) of the same molecule?
**A.** Its value is 9.4.

**Q.** And the “Stability (antide found)” value ([3]; antide 10 mg/ml, nicotinamide 25%, +40° C., 12W)?
**A.** Its value is 10.2.

**Q.** And the “Stability (antide found)” value ([3]; antide 10 mg/ml, nicotinamide 25%, T = 0)?
**A.** Its value is 9.8.

**Q.** What about the chemical degradation ([3]; antide/nicotinamide formulations, after 3 months) of the same molecule?
**A.** The chemical degradation was “No chemical degradation”.

**Q.** Which solubility thermodynamic at 1 week ([4]; 25° C., one week) does the source give for `CC[C@H](C)[C@H](NC(=O)[C@H](C)NC(=O)[C@H](CC(=O)O)NC(=O)[C@H](C)NC(=O)[C@@H](N)Cc1ccc(O)cc1)C(=O)N[C@@H](Cc1ccccc1)C(=O)N[C@H](C(=O)N[C@@H](CC(N)=O)C(=O)N[C@@H](CO)C(=O)N[C@@H](Cc1ccc(O)cc1)C(=O)N[C@@H](CCCNC(=N)N)C(=O)N[C@@H](CCCCN)C(=O)N[C@H](C(=O)N[C@@H](CC(C)C)C(=O)NCC(=O)N[C@@H](CCC(N)=O)C(=O)N[C@@H](CC(C)C)C(=O)N[C@@H](CO)C(=O)N[C@@H](C)C(=O)N[C@@H](CCCNC(=N)N)C(=O)N[C@@H](CCCCN)C(=O)N[C@@H](CC(C)C)C(=O)N[C@@H](CC(C)C)C(=O)N[C@@H](CCC(N)=O)C(=O)N[C@@H](CC(=O)O)C(=O)N[C@H](C(=O)N[C@@H](CCSC)C(=O)N[C@@H](CO)C(=O)N[C@@H](CCCNC(=N)N)C(N)=O)[C@@H](C)CC)C(C)C)[C@@H](C)O` [hGRF, hGRF(1-29)-NH2] here?
**A.** Its solubility thermodynamic at 1 week is 42 µg/mL (≈ 12.5 µM).

**Q.** And the solubility thermodynamic at 1 week ([4]; 40° C. for one week)?
**A.** The solubility thermodynamic at 1 week was 97 µg/mL (≈ 28.9 µM).

**Q.** And the solubility at 1 week ([4]; 25° C., WFI, one week)?
**A.** The solubility at 1 week was over 1000 µg/mL.

**Q.** And the Solubility ([4]; 40° C. for one week, 0.9% NaCl + 5% nicotinamide)?
**A.** Its Solubility is 875 µg/mL.

**Q.** What about the solubility thermodynamic at 5 days ([4]; PBS, pH 7, aqueous buffer, 25° C., 5 days) of the same molecule?
**A.** Its solubility thermodynamic at 5 days is 32 µg/mL (≈ 9.53 µM).
